Measurements taken from patent publication US20120004244A1, “Bis Aromatic Compounds for Use as LTC4 Synthase Inhibitors” (BIOLIPOX AB, priority 2009, published 2012).

Biological target: T1, Recombinant human LTC4 synthase (Homo sapiens, UniProt Q16873)
T1 construct: made in house; host or cells: Pichia pastoris ('Piccia pastoralis' [sic])
T1 sequence (Q16873 1-150): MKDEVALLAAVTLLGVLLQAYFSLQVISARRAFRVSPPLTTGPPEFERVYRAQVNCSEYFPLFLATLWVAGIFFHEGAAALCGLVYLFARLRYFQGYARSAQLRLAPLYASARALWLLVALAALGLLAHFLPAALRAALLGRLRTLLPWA
Assay: LTC4 synthase in vitro assay (LTA4 to LTC4, HTRF detection)
Assay type: biochemical
Settings: for inhibition at 10 µM: 5 min, total concentration of title compound in the assay 10 μM
Description: In the assay, LTC4 synthase catalyses the reaction where the substrate LTA4 is converted to LTC4. Recombinant human LTC4 synthase is expressed in Piccia pastoralis and the purified enzyme is dissolved in 25 mM tris-buffer pH 7.8 supplemented with 0.1 mM glutathione (GSH) and stored at −80° C. The assay is performed in phosphate buffered saline (PBS) pH 7.4 and 5 mM GSH in 384-well plates.
The following is added chronologically to each well:
1.48 μL LTC4 synthase in PBS with 5 mM GSH. The total protein concentration in this solution is 0.5 μg/mL. 2. 1 μL inhibitor in DMSO (final concentration 10 μM). 3. Incubation of the plate at room temperature for 10 min. 4. 1 μL LTA4 (final concentration 2.5 μM). 5. Incubation of the plate at room temperature for 5 min. 6. 10 μL of the incubation mixture is analysed using homogenous time resolved fluorescent (HTRF) detection.

| SMILES | IC50 [µM] | inhibition at 10 µM [%] |
| --- | --- | --- |
| CON=C(c1ccc(Oc2ccccc2)c(C(=O)O)c1)c1ccc(N(CC2CC2)c2ccc(Cl)cc2)cn1 (mixture of isomers) [Example 13, 5-({5-[(4-Chlorophenyl)(cyclopropylmethyl)amino]-2-pyridyl}(methoxyimino)-methyl)-2-phenoxybenzoic acid] | 0.242 |  |
| O=C(O)c1cc(C(=NO)c2ccc(N(CC3CC3)c3ccc(Cl)cc3)cn2)ccc1Oc1ccccc1 (mixture of isomers) [Example 14, 5-({5-[(4-Chlorophenyl)(cyclopropylmethyl)amino]-2-pyridyl}(hydroxyimino)-methyl)-2-phenoxybenzoic acid] | 1.11 |  |
| CN(c1ccc(Cl)cc1)c1ccc(C(=O)c2ccc(Oc3ccc(F)c(F)c3)c(C(=O)O)c2)nc1 [1:2, 5-{5-[(4-Chlorophenyl)(methyl)amino]picolinoyl}-2-(3,4-difluorophenoxy)benzoic acid] | 0.104 | 98 |
| CN(c1ccc(Cl)cc1)c1ccc(C(=O)c2ccc(Oc3cccc(Cl)c3)c(C(=O)O)c2)nc1 [1:3, 2-(3-Chlorophenoxy)-5-{5-[(4-chlorophenyl)(methyl)amino]picolinoyl}benzoic acid] | 0.124 | 98 |
| O=C(c1ccc(Oc2ccccc2)c(C(=O)O)c1)c1ccc(N(CC2CCC2)c2ccc(Cl)cc2)cn1 [1:5, 5-{5-[(4-Chlorophenyl)(cyclobutylmethyl)amino]picolinoyl}-2-phenoxybenzoic acid] | 0.07 | 100 |
| O=C(c1ccc(Oc2ccccc2)c(C(=O)O)c1)c1ccc(N(CC2CCCC2)c2ccc(Cl)cc2)cn1 [1:6, 5-{5-[(4-Chlorophenyl)(cyclopentylmethyl)amino]picolinoyl}-2-phenoxybenzoic acid] | 0.061 | 100 |
| CN(c1ccc(C(=O)c2ccc(Oc3ccccc3)c(C(=O)O)c2)nc1)c1ccc(F)c(F)c1 [1:16, 5-{5-[(3,4-Difluorophenyl)(methyl)amino]picolinoyl}-2-phenoxybenzoic acid] | 0.387 | 98 |
| O=C(c1ccc(Oc2ccccc2)c(C(=O)O)c1)c1ccc(N(CC2CC2)c2ccc(F)c(F)c2)cn1 [1:19, 5-{5-[(Cyclopropylmethyl)(3,4-difluorophenyl)amino]picolinoyl}-2-phenoxybenzoic acid] | 0.13 | 100 |
| CSc1ccccc1Oc1ccc(C(=O)c2ccc(N(C)c3ccc(Cl)cc3)cn2)cc1C(=O)O [1:23, 5-{5-[(4-Chlorophenyl)(methyl)amino]picolinoyl}-2-(2-methylsulfanylphenoxy)benzoic acid] | 0.362 | 100 |
| CN(c1ccc(Cl)cc1)c1ccc(C(=O)c2ccc(Oc3cccnc3)c(C(=O)O)c2)nc1 [1:24, 5-{5-[(4-Chlorophenyl)(methyl)amino]picolinoyl}-2-(3-pyridyloxy)benzoic acid] | 1.14 | 86 |
| COc1ccc(Oc2ccc(C(=O)c3ccc(N(CC4CC4)c4ccc(Cl)cc4)cn3)cc2C(=O)O)cc1 [1:25, 5-{5-[(4-Chlorophenyl)(cyclopropylmethyl)amino]picolinoyl}-2-(4-methoxyphenoxy)benzoic acid] | 0.094 |  |
| O=C(c1ccc(Oc2ccc(Cl)c(Cl)c2)c(C(=O)O)c1)c1ccc(N(CC2CC2)c2ccc(Cl)cc2)cn1 [1:26, 5-{5-[(4-Chlorophenyl)(cyclopropylmethyl)amino]picolinoyl}-2-(3,4-dichlorophenoxy)benzoic acid] | 0.072 |  |
| O=C(c1ccc(Oc2ccc(F)cc2)c(C(=O)O)c1)c1ccc(N(CC2CC2)c2ccc(Cl)cc2)cn1 [1:27, 5-{5-[(4-Chlorophenyl)(cyclopropylmethyl)amino]picolinoyl}-2-(4-fluorophenoxy)-benzoic acid] | 0.052 |  |
| O=C(c1ccc(Oc2ccccc2O)c(C(=O)O)c1)c1ccc(N(CC2CC2)c2ccc(Cl)cc2)cn1 [1:28, 5-{5-[(4-Chlorophenyl)(cyclopropylmethyl)amino]picolinoyl}-2-(2-hydroxyphenoxy)benzoic acid] | 0.044 |  |
| O=C(c1ccc(Oc2ccccc2)c(C(=O)O)c1)c1ccc(Nc2ccc(Cl)cc2)cn1 [1:29, 5-[5-(4-Chlorophenylamino)picolinoyl]-2-phenoxybenzoic acid] | 0.282 |  |
| COc1cccc(Oc2ccc(C(=O)c3ccc(N(CC4CC4)c4ccc(Cl)cc4)cn3)cc2C(=O)O)c1 [1:30, 5-{5-[(4-Chlorophenyl)(cyclopropylmethyl)amino]picolinoyl}-2-(3-methoxyphenoxy)benzoic acid] | 0.158 |  |
| O=C(c1ccc(Oc2ccc3c(c2)OCO3)c(C(=O)O)c1)c1ccc(N(CC2CC2)c2ccc(Cl)cc2)cn1 [1:31, 5-{5-[(4-Chlorophenyl)(cyclopropylmethyl)amino]picolinoyl}-2-(3,4-methylenedioxyphenoxy)benzoic acid] | 0.142 |  |

The next lines start with the values.

| IC50 [µM] | inhibition at 10 µM [%] | SMILES |
| --- | --- | --- |
| 0.11 | 98 | CN(c1ccc(Cl)cc1)c1ccc(C(=O)c2ccc(Oc3ccccc3)c(C(=O)O)c2)nc1 [1:1, 5-{5-[(4-Chlorophenyl)(methyl)amino]picolinoyl}-2-phenoxybenzoic acid] |
| 0.062 | 100 | O=C(c1ccc(Oc2ccccc2)c(C(=O)O)c1)c1ccc(N(CC2CC2)c2ccc(Cl)cc2)cn1 [1:4, 5-{5-[(4-Chlorophenyl)(cyclopropylmethyl)amino]picolinoyl}-2-phenoxybenzoic acid] |
| 0.171 | 99 | CCOCCN(c1ccc(Cl)cc1)c1ccc(C(=O)c2ccc(Oc3ccccc3)c(C(=O)O)c2)nc1 [1:7, 5-{5-[(4-Chlorophenyl)(2-ethoxyethyl)amino]picolinoyl}-2-phenoxybenzoic acid] |
| 0.088 | 100 | C=CCN(c1ccc(Cl)cc1)c1ccc(C(=O)c2ccc(Oc3ccccc3)c(C(=O)O)c2)nc1 [1:8, 5-{5-[(Allyl)(4-chlorophenyl)amino]picolinoyl}-2-phenoxybenzoic acid] |
| 0.048 | 99 | C#CCN(c1ccc(Cl)cc1)c1ccc(C(=O)c2ccc(Oc3ccccc3)c(C(=O)O)c2)nc1 [1:9, 5-{5-[(4-Chlorophenyl)(2-propynyl)amino]picolinoyl}-2-phenoxybenzoic acid] |
| 0.433 | 98 | N#CCCCN(c1ccc(Cl)cc1)c1ccc(C(=O)c2ccc(Oc3ccccc3)c(C(=O)O)c2)nc1 [1:10, 5-{5-[(4-Chlorophenyl)(3-cyanopropyl)amino]picolinoyl}-2-phenoxybenzoic acid] |
| 0.176 | 99 | CN(c1ccc(C(=O)c2ccc(Oc3ccccc3)c(C(=O)O)c2)nc1)c1cccc(C(F)(F)F)c1 [1:11, 5-{5-[(Methyl)(3-trifluoromethylphenyl)amino]picolinoyl}-2-phenoxybenzoic acid] |
| 0.247 | 100 | CCN(c1ccc(C(=O)c2ccc(Oc3ccccc3)c(C(=O)O)c2)nc1)c1cccc(C(F)(F)F)c1 [1:12, 5-{5-[(Ethyl)(3-trifluoromethylphenyl)amino]picolinoyl}-2-phenoxybenzoic acid] |
| 0.29 | 99 | C=CCN(c1ccc(C(F)(F)F)cc1)c1ccc(C(=O)c2ccc(Oc3ccccc3)c(C(=O)O)c2)nc1 [1:13, 5-{5-[(Allyl)(4-trifluoromethylphenyl)amino]picolinoyl}-2-phenoxybenzoic acid] |
| 0.197 | 100 | O=C(c1ccc(Oc2ccccc2)c(C(=O)O)c1)c1ccc(N(CC2CC2)c2cccc(C(F)(F)F)c2)cn1 [1:14, 5-{5-[(Cyclopropylmethyl)(3-trifluoromethylphenyl)amino]picolinoyl}-2-phenoxybenzoic acid] |
| 0.465 | 99 | CN(c1ccc(C(F)(F)F)cc1)c1ccc(C(=O)c2ccc(Oc3ccccc3)c(C(=O)O)c2)nc1 [1:15, 5-{5-[(Methyl)(4-trifluoromethylphenyl)amino]picolinoyl}-2-phenoxybenzoic acid] |
| 1.31 | 96 | CN(c1ccc(C(C)(C)C)cc1)c1ccc(C(=O)c2ccc(Oc3ccccc3)c(C(=O)O)c2)nc1 [1:17, 5-{5-[(4-tert-Butylphenyl)(methyl)amino]picolinoyl}-2-phenoxybenzoic acid] |
| 0.141 | 100 | O=C(c1ccc(Oc2ccccc2)c(C(=O)O)c1)c1ccc(N(CC2CC2)c2ccc(C(F)(F)F)cc2)cn1 [1:18, 5-{5-[(Cycloropylmethyl)(4-trifluoromethylphenyl)amino]picolinoyl}-2-phenoxybenzoic acid] |
| 0.549 | 100 | CC(C)(C)c1ccc(N(CC2CC2)c2ccc(C(=O)c3ccc(Oc4ccccc4)c(C(=O)O)c3)nc2)cc1 [1:20, 5-{5-[(4-tert-Butylphenyl)(cyclopropylmethyl)amino]picolinoyl}-2-phenoxybenzoic acid] |
| 0.295 | 99 | C=CCN(c1ccc(C(=O)c2ccc(Oc3ccccc3)c(C(=O)O)c2)nc1)c1ccc(F)c(F)c1 [1:21, 5-{5-[(Allyl)(3,4-difluorophenyl)amino]picolinoyl}-2-phenoxybenzoic acid] |
| 1.24 | 99 | CCN(c1ccc(C(C)(C)C)cc1)c1ccc(C(=O)c2ccc(Oc3ccccc3)c(C(=O)O)c2)nc1 [1:22, 5-{5-[(4-tert-Butylphenyl)(ethyl)amino]picolinoyl}-2-phenoxybenzoic acid] |
